Our source for the inhibition, viability and Activity values is ChEMBL document CHEMBL5346877, “A-ring-fused pyrazoles of dihydrotestosterone targeting prostate cancer cells via the downregulation of the androgen receptor” (Eur J Med Chem, 2023).

Each structure is given as a SMILES string. The source made the active and inactive calls. No cut-off for these calls is given here.

For one assay, the system named is LAPC4. Put plainly: Inhibition of colony formation in human LAPC4 cells at 10 uM incubated for 10 days by crystal violet staining based assay. It counts as functional. The note with it: LAPC4, 240 h, time 10 day.
Usually inhibition stands for the percentage by which the read-out fell short of the control. For the compound `C[C@]12Cc3cnn(-c4ccc(F)cc4)c3C[C@@H]1CC[C@@H]1[C@@H]2CC[C@]2(C)[C@@H](O)CC[C@@H]12`, the inhibition at 10 µM was determined as 1%.

Consider `COc1ccc(-n2ncc3c2C[C@@H]2CC[C@@H]4[C@H](CC[C@]5(C)[C@@H](O)CC[C@@H]45)[C@@]2(C)C3)cc1`, for which at 10 µM the inhibition was 0%.

Compound `C[C@]12Cc3cnn(-c4ccc(Br)cc4)c3C[C@@H]1CC[C@@H]1[C@@H]2CC[C@]2(C)[C@@H](O)CC[C@@H]12` returned an inhibition at 10 µM of 1%.

On to `N#Cc1ccc(O[C@H]2CC[C@H](NC(=O)c3ccc(N4CCC(CN5CCN(c6cc7c(cc6F)C(=O)N(C6CCC(=O)NC6=O)C7=O)CC5)CC4)nn3)CC2)cc1Cl` (stereo not given in full) [BAVDEGALUTAMIDE], for which the inhibition at 10 µM was found to be 7%.

Compound `Cc1c2c(nn1-c1ccccc1)C[C@@H]1CC[C@@H]3[C@H](CC[C@]4(C)C(=O)CC[C@@H]34)[C@@]1(C)C2` showed an inhibition at 10 µM of 54%.

Compound `Cc1c2c(nn1-c1ccc([N+](=O)[O-])cc1)C[C@@H]1CC[C@@H]3[C@H](CC[C@]4(C)[C@@H](O)CC[C@@H]34)[C@@]1(C)C2` had an inhibition at 10 µM of 11%.

Compound `Cc1ccc(-n2nc3c(c2C)C[C@@]2(C)[C@@H](CC[C@@H]4[C@@H]2CC[C@]2(C)C(=O)CC[C@@H]42)C3)cc1` displayed an inhibition at 10 µM of 54%.

The next assay has as its system LAPC4. The experiment in a line: Inhibition of colony formation in human LAPC4 cells at 5 uM incubated for 10 days by crystal violet staining based assay. It is filed as functional, cell-based. The note with it: time 10.0 day.
With `Cc1c2c(nn1-c1ccccc1)C[C@@H]1CC[C@@H]3[C@H](CC[C@]4(C)C(=O)CC[C@@H]34)[C@@]1(C)C2`, the inhibition entry is “Active”.

`Cc1c2c(nn1-c1ccc([N+](=O)[O-])cc1)C[C@@H]1CC[C@@H]3[C@H](CC[C@]4(C)[C@@H](O)CC[C@@H]34)[C@@]1(C)C2`: the inhibition entry is “Active”.

`Cc1ccc(-n2nc3c(c2C)C[C@@]2(C)[C@@H](CC[C@@H]4[C@@H]2CC[C@]2(C)C(=O)CC[C@@H]42)C3)cc1`: the inhibition entry was “Active”.

The next assay has as its system DU-145. Put plainly: Cytotoxicity against human DU-145 cells assessed as cell viability at 20 uM incubated for 72 hrs by resazurin dye based microplate reader assay. It is filed as functional. Conditions: read-out: Activity. In general terms: Resazurin is reduced to fluorescent resorufin, in cell work by metabolically active cells.
`C[C@]12Cc3cnn(-c4ccc(F)cc4)c3C[C@@H]1CC[C@@H]1[C@@H]2CC[C@]2(C)[C@@H](O)CC[C@@H]12`: the viability at 20 µM came to 55%.

As for `COc1ccc(-n2ncc3c2C[C@@H]2CC[C@@H]4[C@H](CC[C@]5(C)[C@@H](O)CC[C@@H]45)[C@@]2(C)C3)cc1`, the viability at 20 µM came to 97%.

Turning to `C[C@]12Cc3cnn(-c4ccc(Br)cc4)c3C[C@@H]1CC[C@@H]1[C@@H]2CC[C@]2(C)[C@@H](O)CC[C@@H]12`, the viability at 20 µM was 100%.

Regarding `N#Cc1ccc(O[C@H]2CC[C@H](NC(=O)c3ccc(N4CCC(CN5CCN(c6cc7c(cc6F)C(=O)N(C6CCC(=O)NC6=O)C7=O)CC5)CC4)nn3)CC2)cc1Cl` (stereo not given in full) [BAVDEGALUTAMIDE], the viability at 20 µM stood at 85%.

Turning to `Cc1c2c(nn1-c1ccccc1)C[C@@H]1CC[C@@H]3[C@H](CC[C@]4(C)C(=O)CC[C@@H]34)[C@@]1(C)C2`, the viability at 20 µM is 100%.

As to `Cc1c2c(nn1-c1ccc([N+](=O)[O-])cc1)C[C@@H]1CC[C@@H]3[C@H](CC[C@]4(C)[C@@H](O)CC[C@@H]34)[C@@]1(C)C2`, the viability at 20 µM was 85%.

With `Cc1ccc(-n2nc3c(c2C)C[C@@]2(C)[C@@H](CC[C@@H]4[C@@H]2CC[C@]2(C)C(=O)CC[C@@H]42)C3)cc1`, the viability at 20 µM was at least 100%.

Test system in the next assay: not listed separately
Put plainly: Downregulation of AR protein expression in human LAPC4 cells assessed as AR levels at 10 uM incubated for 24 hrs by immunoblotting analysis. It counts as functional.
Conditions: not given
In general terms: A western blot detects proteins with antibodies after separation by electrophoresis.
Turning to `C[C@]12Cc3cnn(-c4ccc(F)cc4)c3C[C@@H]1CC[C@@H]1[C@@H]2CC[C@]2(C)[C@@H](O)CC[C@@H]12`, the Activity result was “>=100%”.

Turning to `COc1ccc(-n2ncc3c2C[C@@H]2CC[C@@H]4[C@H](CC[C@]5(C)[C@@H](O)CC[C@@H]45)[C@@]2(C)C3)cc1`, the Activity entry is recorded as “>=100%”.

`C[C@]12Cc3cnn(-c4ccc(Br)cc4)c3C[C@@H]1CC[C@@H]1[C@@H]2CC[C@]2(C)[C@@H](O)CC[C@@H]12`: the Activity result is reported as “>=100%”.

For `N#Cc1ccc(O[C@H]2CC[C@H](NC(=O)c3ccc(N4CCC(CN5CCN(c6cc7c(cc6F)C(=O)N(C6CCC(=O)NC6=O)C7=O)CC5)CC4)nn3)CC2)cc1Cl` (stereo not given in full) [BAVDEGALUTAMIDE], the Activity was 14%.

A further assay relates to CWR22R. The experiment in a line: Cytotoxicity against human 22Rv1 cells assessed as cell viability at 20 uM incubated for 72 hrs by resazurin dye based microplate reader assay. It counts as functional. The note with it: read-out: Activity.
Take `C[C@]12Cc3cnn(-c4ccc(F)cc4)c3C[C@@H]1CC[C@@H]1[C@@H]2CC[C@]2(C)[C@@H](O)CC[C@@H]12`: the viability at 20 µM worked out at 57%.

With `COc1ccc(-n2ncc3c2C[C@@H]2CC[C@@H]4[C@H](CC[C@]5(C)[C@@H](O)CC[C@@H]45)[C@@]2(C)C3)cc1`, the viability at 20 µM stood at 75%.

For the compound `C[C@]12Cc3cnn(-c4ccc(Br)cc4)c3C[C@@H]1CC[C@@H]1[C@@H]2CC[C@]2(C)[C@@H](O)CC[C@@H]12`, the viability at 20 µM stood at 62%.

Consider `N#Cc1ccc(O[C@H]2CC[C@H](NC(=O)c3ccc(N4CCC(CN5CCN(c6cc7c(cc6F)C(=O)N(C6CCC(=O)NC6=O)C7=O)CC5)CC4)nn3)CC2)cc1Cl` (stereo not given in full) [BAVDEGALUTAMIDE], for which the viability at 20 µM was found to be 96%.

On to `Cc1c2c(nn1-c1ccccc1)C[C@@H]1CC[C@@H]3[C@H](CC[C@]4(C)C(=O)CC[C@@H]34)[C@@]1(C)C2`, for which the viability at 20 µM was 90%.

With `Cc1c2c(nn1-c1ccc([N+](=O)[O-])cc1)C[C@@H]1CC[C@@H]3[C@H](CC[C@]4(C)[C@@H](O)CC[C@@H]34)[C@@]1(C)C2`, the viability at 20 µM amounted to 58%.

Regarding `Cc1ccc(-n2nc3c(c2C)C[C@@]2(C)[C@@H](CC[C@@H]4[C@@H]2CC[C@]2(C)C(=O)CC[C@@H]42)C3)cc1`, the viability at 20 µM is 97%.

In a further assay the test system is LAPC4. The experiment in a line: Cytotoxicity against human LAPC4 cells assessed as cell viability at 20 uM incubated for 72 hrs by resazurin dye based microplate reader assay. It is filed as functional. The note with it: read-out: Activity.
In the case of `C[C@]12Cc3cnn(-c4ccc(F)cc4)c3C[C@@H]1CC[C@@H]1[C@@H]2CC[C@]2(C)[C@@H](O)CC[C@@H]12`, the viability at 20 µM was 44%.

As to `COc1ccc(-n2ncc3c2C[C@@H]2CC[C@@H]4[C@H](CC[C@]5(C)[C@@H](O)CC[C@@H]45)[C@@]2(C)C3)cc1`, the viability at 20 µM was found to be 43%.

Consider `C[C@]12Cc3cnn(-c4ccc(Br)cc4)c3C[C@@H]1CC[C@@H]1[C@@H]2CC[C@]2(C)[C@@H](O)CC[C@@H]12`, for which the viability at 20 µM worked out at 58%.

In the case of `N#Cc1ccc(O[C@H]2CC[C@H](NC(=O)c3ccc(N4CCC(CN5CCN(c6cc7c(cc6F)C(=O)N(C6CCC(=O)NC6=O)C7=O)CC5)CC4)nn3)CC2)cc1Cl` (stereo not given in full) [BAVDEGALUTAMIDE], the viability at 20 µM turned out to be 5%.

For the compound `Cc1c2c(nn1-c1ccccc1)C[C@@H]1CC[C@@H]3[C@H](CC[C@]4(C)C(=O)CC[C@@H]34)[C@@]1(C)C2`, the viability at 20 µM was found to be 87%.

On to `Cc1c2c(nn1-c1ccc([N+](=O)[O-])cc1)C[C@@H]1CC[C@@H]3[C@H](CC[C@]4(C)[C@@H](O)CC[C@@H]34)[C@@]1(C)C2`, for which the viability at 20 µM is 74%.

For `Cc1ccc(-n2nc3c(c2C)C[C@@]2(C)[C@@H](CC[C@@H]4[C@@H]2CC[C@]2(C)C(=O)CC[C@@H]42)C3)cc1`, the viability at 20 µM turned out to be 87%.
